The test system of assay [1] is Human T cell acute lymphoblastic leukemia cell (CCRF-CEM). The assay can be described thus: Tumor cell proliferation inhibition (CellTiter-Meiluncell luminescent cell viability assay). The note with it: 96 h; for inhibition at 0.01 µM: read-out: Inhibition Rate at 10 nM (%); for inhibition at 0.5 µM: read-out: Inhibition Rate at 500 nM (%).
Experimental: The tumor cells used herein were cultured in a cell culture medium listed in table 2 at 37°C in an incubator with 5% CO2. Prior to experimentation, all cell lines used were correctly identified by STR profiling, and tested negative for mycoplasma contamination using a mycoplasma detection kit through routine screenings.
The IC50 values of the compounds of the present disclosure (including the compounds in Table 1 and Examples) were determined using the CellTiter-Meiluncell Luminescent Cell Viability Assay Kit from Dalian Meilun Biotech Co., Ltd. The detailed procedure is as follows: Tumor cells were seeded in 96-well cell culture plates at the densities specified in Table 3. On the following day, the test compounds of the present disclosure were subjected to serial dilution. The dilution can be performed according to one of the following two methods: • (1) The first dilution method: The test compounds of the present disclosure (including the compounds in Table 1 and Examples) were subjected to 5-fold serial dilutions starting from a highest concentration of 2000 µM, resulting in a total of 9 concentrations from high to low (2000, 400, 80, 16, 3.2, 0.64, 0.128, 0.0256, 0.00512 µM). Subsequently, 0.5 µL of the test compound dilution was transferred into the 96-well plate containing the cells, with each well containing 100 µL of cell culture medium. […] Into the 96-well plate, the diluted test compounds and corresponding detection reagents were added, resulting in final test compound concentrations of 500 nM and 10 nM, respectively. The experimental procedure is described below using the diluted 2 µM test compound as an example.
0.5 µL of the aforementioned diluted compound of the present disclosure (including the compounds in Table 1 and Examples) was added to the seeded cells in 100 µL of medium, yielding a final test compound concentration of 10 nM. After the cells were treated with the compounds of the present disclosure for a specified period, the cell viability assay reagent was added to the culture medium according to the kit's instructions to determine cell viability. […] All controls were treated using the same procedure as the compounds of the present disclosure. The growth inhibition curves for the compounds of the present disclosure were plotted using Prism GraphPad software, and the IC50 values were calculated therefrom.
Assay [2] deals with Human multiple myeloma cell (MM.1S). The description is as above. The note with it: for inhibition at 0.01 µM / inhibition at 0.5 µM: Homo sapiens, MM1.S, 96 h; for inhibition at 0.01 µM: read-out: Inhibition Rate at 10 nM (%); for inhibition at 0.5 µM: read-out: Inhibition Rate at 500 nM (%).
A further assay concerns GSPT1. The assay is described as follows: Western blot, degradation of substrate protein in hPBMCs. Format: cell-based, Human.
In assay [3] the target is T1, human Cereblon WT GST-tagged protein (Homo sapiens, UniProt Q96SW2).
T1 construct: purchased CISBIO 64BDCRBNPEH
T1 sequence (Q96SW2 whole entry): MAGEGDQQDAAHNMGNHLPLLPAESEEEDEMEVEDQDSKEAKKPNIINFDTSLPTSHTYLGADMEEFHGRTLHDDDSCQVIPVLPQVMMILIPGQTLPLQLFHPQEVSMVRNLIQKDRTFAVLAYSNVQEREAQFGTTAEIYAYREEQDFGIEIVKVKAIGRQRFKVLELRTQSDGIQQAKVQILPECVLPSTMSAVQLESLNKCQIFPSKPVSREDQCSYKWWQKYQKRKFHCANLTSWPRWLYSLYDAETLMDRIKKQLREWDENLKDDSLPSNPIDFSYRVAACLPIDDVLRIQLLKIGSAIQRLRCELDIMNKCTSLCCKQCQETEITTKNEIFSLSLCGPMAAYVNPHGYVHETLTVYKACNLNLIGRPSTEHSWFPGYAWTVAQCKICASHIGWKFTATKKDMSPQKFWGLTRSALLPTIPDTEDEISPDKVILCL
The assay can be described thus: CRBN-binding affinity, HTRF (CEREBLON BINDING kit). The following applies: for inhibition at 0.5 µM: read-out: Inhibition Rate at 0.5 µM (%); for inhibition at 2 µM: read-out: Inhibition Rate at 2 µM (%). For orientation: Time-resolved FRET reads energy transfer from a long-lived donor to a nearby acceptor.

Assay [4] concerns Human myeloid monocytic leukemia cell (MV-4-11). The assay can be described thus: Tumor cell proliferation inhibition (CellTiter-Meiluncell luminescent cell viability assay). The following applies: MV4-11, 96 h; for inhibition at 0.01 µM: read-out: Inhibition Rate at 10 nM (%); for inhibition at 0.5 µM: read-out: Inhibition Rate at 500 nM (%).
For another assay, the target named is T2, CK1α (Homo sapiens, UniProt P48729+Q96SW2).
T2 construct: effects of the compounds of the present disclosure on the expression of target proteins in cells; endogenous in cells; host or cells: human PBMCs (Milecell Biotechnologies)
T2 sequence (P48729 whole entry): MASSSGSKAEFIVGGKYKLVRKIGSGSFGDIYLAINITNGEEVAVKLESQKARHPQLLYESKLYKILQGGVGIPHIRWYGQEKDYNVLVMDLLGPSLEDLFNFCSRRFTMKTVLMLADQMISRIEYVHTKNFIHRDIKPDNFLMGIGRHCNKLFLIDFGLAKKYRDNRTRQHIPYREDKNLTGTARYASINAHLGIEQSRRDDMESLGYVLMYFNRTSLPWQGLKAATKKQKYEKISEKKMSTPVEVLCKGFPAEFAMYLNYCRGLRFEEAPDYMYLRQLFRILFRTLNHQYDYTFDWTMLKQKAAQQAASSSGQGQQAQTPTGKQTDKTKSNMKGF
T2 sequence (Q96SW2 whole entry): as the sequence (Q96SW2 whole entry) above
T2 sequence (Q16531 whole entry partner): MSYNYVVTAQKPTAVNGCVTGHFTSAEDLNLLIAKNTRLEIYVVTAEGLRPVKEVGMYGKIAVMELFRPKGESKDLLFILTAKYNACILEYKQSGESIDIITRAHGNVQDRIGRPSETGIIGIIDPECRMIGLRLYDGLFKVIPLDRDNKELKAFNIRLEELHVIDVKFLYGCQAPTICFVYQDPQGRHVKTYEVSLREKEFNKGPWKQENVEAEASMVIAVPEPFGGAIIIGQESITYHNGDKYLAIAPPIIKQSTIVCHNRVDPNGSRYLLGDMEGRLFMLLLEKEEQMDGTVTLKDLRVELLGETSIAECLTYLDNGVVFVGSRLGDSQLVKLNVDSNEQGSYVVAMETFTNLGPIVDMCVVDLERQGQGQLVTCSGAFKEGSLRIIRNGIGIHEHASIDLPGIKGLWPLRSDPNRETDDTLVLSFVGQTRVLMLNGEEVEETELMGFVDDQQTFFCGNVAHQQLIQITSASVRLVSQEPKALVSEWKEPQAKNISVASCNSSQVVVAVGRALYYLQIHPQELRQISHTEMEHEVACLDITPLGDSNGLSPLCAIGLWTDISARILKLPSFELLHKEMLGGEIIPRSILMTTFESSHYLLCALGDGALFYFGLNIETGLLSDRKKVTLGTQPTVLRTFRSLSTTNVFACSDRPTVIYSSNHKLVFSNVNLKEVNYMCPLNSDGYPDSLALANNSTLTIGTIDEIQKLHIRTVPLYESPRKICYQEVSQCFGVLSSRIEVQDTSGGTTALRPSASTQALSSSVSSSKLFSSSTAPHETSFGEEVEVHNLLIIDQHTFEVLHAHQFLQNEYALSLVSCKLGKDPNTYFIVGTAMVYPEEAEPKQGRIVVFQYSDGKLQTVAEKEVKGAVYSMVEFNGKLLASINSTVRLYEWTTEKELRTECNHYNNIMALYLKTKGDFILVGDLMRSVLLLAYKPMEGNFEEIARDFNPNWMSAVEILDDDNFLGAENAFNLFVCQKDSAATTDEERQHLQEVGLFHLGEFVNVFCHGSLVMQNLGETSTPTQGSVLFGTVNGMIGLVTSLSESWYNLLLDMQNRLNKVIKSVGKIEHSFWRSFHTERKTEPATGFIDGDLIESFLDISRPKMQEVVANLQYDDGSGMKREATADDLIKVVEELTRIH
The assay can be described thus: Western blot, degradation of substrate protein in hPBMCs. The assay is classed as cell-based.

Another assay deals with T3, WEE1 (Homo sapiens, UniProt P30291+Q96SW2).
T3 construct: effects of the compounds of the present disclosure on the expression of target proteins in cells; endogenous in cells; host or cells: human PBMCs (Milecell Biotechnologies)
T3 sequence (P30291 whole entry): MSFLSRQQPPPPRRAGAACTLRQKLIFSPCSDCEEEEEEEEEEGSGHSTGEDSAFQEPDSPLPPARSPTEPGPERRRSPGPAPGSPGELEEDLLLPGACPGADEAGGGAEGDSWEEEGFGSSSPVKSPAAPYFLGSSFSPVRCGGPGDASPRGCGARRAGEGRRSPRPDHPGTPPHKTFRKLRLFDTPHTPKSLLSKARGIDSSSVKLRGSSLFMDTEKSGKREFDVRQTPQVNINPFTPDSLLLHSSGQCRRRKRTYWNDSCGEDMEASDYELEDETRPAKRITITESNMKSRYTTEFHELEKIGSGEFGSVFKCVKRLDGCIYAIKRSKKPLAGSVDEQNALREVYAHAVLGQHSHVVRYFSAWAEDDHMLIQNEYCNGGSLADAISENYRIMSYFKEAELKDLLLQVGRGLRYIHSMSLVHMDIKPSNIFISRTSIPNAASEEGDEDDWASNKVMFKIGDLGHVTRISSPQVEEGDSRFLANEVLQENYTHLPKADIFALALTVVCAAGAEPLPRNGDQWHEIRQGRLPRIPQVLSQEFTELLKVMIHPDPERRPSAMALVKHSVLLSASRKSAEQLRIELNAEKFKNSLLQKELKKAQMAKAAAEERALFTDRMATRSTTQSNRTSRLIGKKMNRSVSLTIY
T3 sequence (Q96SW2 whole entry): as the sequence (Q96SW2 whole entry) above
T3 sequence (Q16531 whole entry partner): as the sequence (Q16531 whole entry partner) above
Described as above. The assay is classed as cell-based.

The target of a further assay is T4, IKZF3 (Homo sapiens, UniProt Q96SW2+Q9UKT9).
T4 construct: effects of the compounds of the present disclosure on the expression of target proteins in cells; endogenous in cells; host or cells: human PBMCs (Milecell Biotechnologies)
T4 sequence (Q9UKT9 whole entry): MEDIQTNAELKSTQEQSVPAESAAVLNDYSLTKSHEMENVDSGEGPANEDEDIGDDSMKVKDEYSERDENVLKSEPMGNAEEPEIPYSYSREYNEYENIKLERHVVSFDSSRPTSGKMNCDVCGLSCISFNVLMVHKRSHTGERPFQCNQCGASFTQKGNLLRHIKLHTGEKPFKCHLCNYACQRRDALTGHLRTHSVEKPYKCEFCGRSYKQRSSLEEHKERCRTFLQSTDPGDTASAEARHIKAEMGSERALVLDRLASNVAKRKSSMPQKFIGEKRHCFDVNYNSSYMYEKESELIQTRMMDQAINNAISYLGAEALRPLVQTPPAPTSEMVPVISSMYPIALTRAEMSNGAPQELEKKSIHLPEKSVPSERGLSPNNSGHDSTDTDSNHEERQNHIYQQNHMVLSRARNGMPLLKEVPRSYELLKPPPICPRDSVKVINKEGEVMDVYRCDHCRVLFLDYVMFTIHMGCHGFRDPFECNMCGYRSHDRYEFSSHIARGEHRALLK
T4 sequence (Q96SW2 whole entry): as the sequence (Q96SW2 whole entry) above
T4 sequence (Q16531 whole entry partner): as the sequence (Q16531 whole entry partner) above
Described as above. The assay is classed as cell-based.

The target of a further assay is T5, IKZF2 (Homo sapiens, UniProt Q96SW2+Q9UKS7).
T5 construct: effects of the compounds of the present disclosure on the expression of target proteins in cells; endogenous in cells; host or cells: human PBMCs (Milecell Biotechnologies)
T5 sequence (Q9UKS7 whole entry): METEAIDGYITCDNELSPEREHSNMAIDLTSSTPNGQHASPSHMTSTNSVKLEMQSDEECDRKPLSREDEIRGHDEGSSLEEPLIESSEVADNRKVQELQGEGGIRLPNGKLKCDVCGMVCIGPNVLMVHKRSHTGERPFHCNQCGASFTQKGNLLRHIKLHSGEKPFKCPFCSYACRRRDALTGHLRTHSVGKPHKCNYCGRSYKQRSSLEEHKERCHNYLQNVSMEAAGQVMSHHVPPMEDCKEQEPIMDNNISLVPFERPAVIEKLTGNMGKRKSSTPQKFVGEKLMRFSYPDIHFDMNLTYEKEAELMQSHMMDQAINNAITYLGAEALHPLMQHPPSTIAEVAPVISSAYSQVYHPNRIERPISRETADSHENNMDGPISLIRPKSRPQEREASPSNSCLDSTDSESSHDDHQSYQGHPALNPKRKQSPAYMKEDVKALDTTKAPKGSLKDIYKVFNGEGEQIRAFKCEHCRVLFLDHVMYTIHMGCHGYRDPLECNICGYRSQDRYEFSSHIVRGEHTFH
T5 sequence (Q96SW2 whole entry): as the sequence (Q96SW2 whole entry) above
T5 sequence (Q16531 whole entry partner): as the sequence (Q16531 whole entry partner) above
Described as above. Format: cell-based.

In a further assay the target is T6, IKZF1 (Homo sapiens, UniProt Q13422+Q96SW2).
T6 construct: effects of the compounds of the present disclosure on the expression of target proteins in cells; endogenous in cells; host or cells: human PBMCs (Milecell Biotechnologies)
T6 sequence (Q13422 whole entry): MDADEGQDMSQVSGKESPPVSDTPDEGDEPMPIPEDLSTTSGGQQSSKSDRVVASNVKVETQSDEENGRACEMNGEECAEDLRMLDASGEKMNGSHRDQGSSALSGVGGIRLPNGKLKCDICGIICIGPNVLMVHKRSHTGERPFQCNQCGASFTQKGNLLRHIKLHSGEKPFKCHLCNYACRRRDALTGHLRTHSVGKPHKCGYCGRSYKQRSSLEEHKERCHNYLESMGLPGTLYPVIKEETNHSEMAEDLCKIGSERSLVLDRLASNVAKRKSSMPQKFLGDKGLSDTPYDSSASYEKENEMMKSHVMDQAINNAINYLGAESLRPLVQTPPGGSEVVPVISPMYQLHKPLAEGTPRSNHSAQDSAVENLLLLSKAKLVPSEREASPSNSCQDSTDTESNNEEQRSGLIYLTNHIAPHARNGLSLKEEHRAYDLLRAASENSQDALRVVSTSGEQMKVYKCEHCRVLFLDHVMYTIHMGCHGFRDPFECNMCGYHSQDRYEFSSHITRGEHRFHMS
T6 sequence (Q96SW2 whole entry): as the sequence (Q96SW2 whole entry) above
T6 sequence (Q16531 whole entry partner): as the sequence (Q16531 whole entry partner) above
Described as above. The assay is classed as cell-based.

Assay [5] has as its system Human acute myeloid leukemia cell line: Kasumi-1. The assay is described as follows: Tumor cell proliferation inhibition (CellTiter-Meiluncell luminescent cell viability assay). The following applies: Kasumi 1, 96 h; for inhibition at 0.01 µM: read-out: Inhibition Rate at 10 nM (%); for inhibition at 0.5 µM: read-out: Inhibition Rate at 500 nM (%).
The subject of assay [6] is Human T lymphocytic leukemia cell line: Jurkat. Described as above. The note with it: 96 h; for inhibition at 0.01 µM: read-out: Inhibition Rate at 10 nM (%); for inhibition at 0.5 µM: read-out: Inhibition Rate at 500 nM (%).
For assay [7], the system named is Human acute T lymphocytic leukemia cell (Molt4). The assay is described as above. The following applies: MOLT-4, 96 h; for inhibition at 0.01 µM: read-out: Inhibition Rate at 10 nM (%); for inhibition at 0.5 µM: read-out: Inhibition Rate at 500 nM (%).
Assay [8] has as its system Human multiple myeloma peripheral blood B lymphocyte cell (RPMI-8226). The assay is described as above. The following applies: RPMI-8226, 96 h; for inhibition at 0.01 µM: read-out: Inhibition Rate at 10 nM (%); for inhibition at 0.5 µM: read-out: Inhibition Rate at 500 nM (%).
Setting [9] is: Western blot, 24 hours of compound treatment, compounds tested at 50 nM and 500 nM (concentration for the table not stated).
[10] abbreviates: 24 hours treatment, compounds at 50 nM and 500 nM (concentration behind the class not stated).

This is an account of results in patent EP4745135A1 (Gluetacs Therapeutics (Shanghai) Co., Ltd., priority 2023, dated 2025).

As usually defined, the inhibition is the relative decrease from the control value, in per cent.

Take `O=C1CCC(N2Cc3cc(CN4CCN(c5ccccc5)CC4)ccc3C2=S)C(=O)N1` (stereo not drawn) [GT-08205, 3-(5-((4-phenylpiperazin-1-yl)methyl)-1-thioxoisoindolin-2-yl)piperidine-2,6-dione]: the inhibition at 0.01 µM lay in the range of 10 to 20% in assay [1]; 10 to 20% in [2]; 5 to 10% in [4]; 10 to 20% in [5]; 5 to 10% in assay [6]; 0 to 5% in assay [7]. The inhibition at 0.5 µM was 60 to 70% in [1]; 60 to 80% in assay [3]; 80 to 100% in assay [4]; 40 to 50% in assay [5]; 30 to 40% in [6]; 60 to 70% in assay [7]. Moreover, the “Inhibition Rate at 500 nM (%)” value in assay [2] (MM.1S, 500 nM, 96 hours) was “la8”. Moreover, in the assay on GSPT1 (setting [9]), the “GSPT1 substrate protein remaining %” value is given as “A (0% ≤ substrate protein remaining % ≤ 80%)”. The inhibition at 2 µM in assay [3] lay in the range of 80 to 100%. At CK1α (setting [9]), the “CK1α substrate protein remaining %” value is “B (80%< substrate protein remaining %≤ 100%)”. The “Wee1 substrate protein remaining %” value at WEE1 (setting [9]) is “A (0% ≤ substrate protein remaining % ≤ 80%)”. Further, at IKZF3 (setting [9]), the “IKZF3 substrate protein remaining %” value is on record as “A (0% ≤ substrate protein remaining % ≤ 80%)”. Further, at IKZF2 (setting [9]), the “IKZF2 substrate protein remaining %” value is reported as “A (0% ≤ substrate protein remaining % ≤ 80%)”. Further, the “IKZF 1 substrate protein remaining %” value on IKZF1 (setting [9]) is listed as “B (80%< substrate protein remaining %≤ 100%)”.
Turning to `O=C1CCC(N2Cc3cc(CN4CCC(c5ccsc5)CC4)ccc3C2=S)C(=O)N1` (stereo not drawn) [GT-08324, 3-(5-((4-(thiophen-3-yl)piperidin-1-yl)methyl)-1-thioxoisoindolin-2-yl)piperidine-2,6-dione], the inhibition at 0.01 µM in assay [1] is 5 to 10%; in assay [2] it was 20 to 30%; in assay [4] it was 30 to 40%; in assay [5], 0 to 5%; in assay [6] it was -5 to 0%; in [7] it was 10 to 20%. Moreover, the inhibition at 0.5 µM was in the range of 80 to 100% in assay [1]; 80 to 100% in [2]; 60 to 80% in assay [3]; 80 to 100% in assay [4]; 60 to 70% in [5]; 40 to 50% in [6]. Also, the inhibition at 0.5 µM in assay [7] is 80 to 100%. Further, in the assay with GSPT1 (setting [10]), the “GSPT1 substrate protein remaining %” value is on record as “A (0% ≤ substrate protein remaining % ≤ 80%)”. For the same molecule, the inhibition at 2 µM in assay [3] lay within 80 to 100%. The “CK1α substrate protein remaining %” value on CK1α (setting [10]) is listed as “A (0% ≤ substrate protein remaining % ≤ 80%)”. Moreover, on WEE1 (setting [10]), the “Wee1 substrate protein remaining %” value is reported as “A (0% ≤ substrate protein remaining % ≤ 80%)”. Besides, the “IKZF3 substrate protein remaining %” value at IKZF3 (setting [10]) is reported as “B (80%< substrate protein remaining %≤ 100%)”. Besides, the “IKZF2 substrate protein remaining %” value on IKZF2 (setting [10]) is “A (0% ≤ substrate protein remaining % ≤ 80%)”. Also, at IKZF1 (setting [10]), the “IKZF 1 substrate protein remaining %” value is listed as “A (0% ≤ substrate protein remaining % ≤ 80%)”.
Take `Cc1cc(C2CCN(Cc3ccc4c(c3)CN(C3CCC(=O)NC3=O)C4=S)CC2)cs1` (stereo not drawn) [GT-08325, 3-(5-((4-(5-methylthiophen-3-yl)piperidin-1-yl)methyl)-1-thioxoisoindolin-2-yl)piperidine-2,6-dione]: the inhibition at 0.01 µM in assay [1] was 10 to 20%; in assay [2] it was 30 to 40%; in assay [4] it was 60 to 80%; in assay [8] it was 20 to 30%; in assay [5], 0 to 5%; in [6] it was -5 to 0%. For the same molecule, the inhibition at 0.01 µM in [7] is 10 to 20%. Further, the inhibition at 0.5 µM lay in the range of 80 to 100% in assay [1]; 80 to 100% in assay [2]; 60 to 80% in [3]; 100 to 110% in assay [4]; 60 to 70% in [8]; 80 to 100% in assay [5]. Besides, the values for the inhibition at 0.5 µM in [6] and in assay [7] were 70 to 80% and 80 to 100%, respectively. Moreover, in the assay with GSPT1 (setting [10]), the “GSPT1 substrate protein remaining %” value is given as “A (0% ≤ substrate protein remaining % ≤ 80%)”. In assay [3], the inhibition at 2 µM lay in the range of 80 to 100%. The “CK1α substrate protein remaining %” value on CK1α (setting [10]) was “A (0% ≤ substrate protein remaining % ≤ 80%)”. Besides, on WEE1 (setting [10]), the “Wee1 substrate protein remaining %” value is reported as “A (0% ≤ substrate protein remaining % ≤ 80%)”. In addition, the “IKZF3 substrate protein remaining %” value on IKZF3 (setting [10]) is “B (80%< substrate protein remaining %≤ 100%)”. Besides, the “IKZF2 substrate protein remaining %” value on IKZF2 (setting [10]) is recorded as “B (80%< substrate protein remaining %≤ 100%)”. On IKZF1 (setting [10]), the “IKZF 1 substrate protein remaining %” value is on record as “B (80%< substrate protein remaining %≤ 100%)”.
As to `O=C1CCC(N2Cc3cc(CN4CC=C(c5ccoc5)CC4)ccc3C2=S)C(=O)N1` (stereo not drawn) [GT-08328, 3-(5-((4-(furan-3-yl)-3,6-dihydropyridin-1(2H)-yl)methyl)-1-thioxoisoindolin-2-yl)piperidine-2,6-dione], the inhibition at 0.01 µM in [1] lay within 10 to 20%; in [2], 50 to 60%; in [4] it was 40 to 60%; in assay [5], 5 to 10%; in [6], 0 to 5%; in [7] it was 10 to 20%. Besides, the inhibition at 0.5 µM in assay [1] was 80 to 100%; in [2], 80 to 100%; in [3] it was 60 to 80%; in assay [4], 80 to 100%; in assay [5], 60 to 70%; in assay [6], 40 to 50%. The inhibition at 0.5 µM in assay [7] lay in the range of 80 to 100%. Moreover, the “GSPT1 substrate protein remaining %” value in the assay on GSPT1 (setting [10]) is “A (0% ≤ substrate protein remaining % ≤ 80%)”. Moreover, in [3], the inhibition at 2 µM was 80 to 100%. The “CK1α substrate protein remaining %” value on CK1α (setting [10]) is “A (0% ≤ substrate protein remaining % ≤ 80%)”. Besides, the “Wee1 substrate protein remaining %” value at WEE1 (setting [10]) is “A (0% ≤ substrate protein remaining % ≤ 80%)”. For the same molecule, the “IKZF3 substrate protein remaining %” value on IKZF3 (setting [10]) was “B (80%< substrate protein remaining %≤ 100%)”. In addition, the “IKZF2 substrate protein remaining %” value at IKZF2 (setting [10]) is listed as “B (80%< substrate protein remaining %≤ 100%)”. Also, at IKZF1 (setting [10]), the “IKZF 1 substrate protein remaining %” value is listed as “B (80%< substrate protein remaining %≤ 100%)”.
For the molecule `O=C1CCC(N2Cc3cc(CN4CCC(c5cccc(F)c5F)CC4)ccc3C2=S)C(=O)N1` (stereo not drawn) [GT-08331, 3-(5-((4-(2,3-difluorophenyl)piperidin-1-yl)methyl)-1-thioxoisoindolin-2-yl)piperidine-2,6-dione], the inhibition at 0.01 µM fell in the range of 5 to 10% in [1]; 10 to 20% in assay [2]; 10 to 20% in assay [8]; 5 to 10% in [5]; 5 to 10% in [6]; 10 to 20% in assay [7]. Further, the inhibition at 0.5 µM in assay [1] fell in the range of 80 to 100%; in assay [2] it was 80 to 100%; in assay [3], 40 to 53%; in assay [8] it was 40 to 50%; in assay [5] it was 70 to 80%; in [6] it was 50 to 60%. The inhibition at 0.5 µM in [7] was in the range of 80 to 100%. For the same molecule, in the assay on GSPT1 (setting [10]), the “GSPT1 substrate protein remaining %” value is recorded as “A (0% ≤ substrate protein remaining % ≤ 80%)”. The inhibition at 2 µM in assay [3] was 80 to 100%. On CK1α (setting [10]), the “CK1α substrate protein remaining %” value is given as “A (0% ≤ substrate protein remaining % ≤ 80%)”. For the same molecule, at WEE1 (setting [10]), the “Wee1 substrate protein remaining %” value is reported as “A (0% ≤ substrate protein remaining % ≤ 80%)”. The “IKZF3 substrate protein remaining %” value on IKZF3 (setting [10]) is given as “B (80%< substrate protein remaining %≤ 100%)”. Besides, on IKZF2 (setting [10]), the “IKZF2 substrate protein remaining %” value was “A (0% ≤ substrate protein remaining % ≤ 80%)”. Further, at IKZF1 (setting [10]), the “IKZF 1 substrate protein remaining %” value is recorded as “A (0% ≤ substrate protein remaining % ≤ 80%)”.
